In one data set the test system is HBV. As to the kind of experiment: Cell-based anti-HBV activity of HF9C6 analogs (Table 2; HBV DNA in HepAD38 cells). The following applies: Hepatitis B virus. As for the experimental part: HepAD38 cells (5×10^4) were plated in 96-well plates in tet media. The next day, cells were washed 2× with PBS, and the media was replaced with complete media (DMEM, 10% FBS) containing compounds. Fresh complete media with compounds was added again after 2 days. After 2 additional days, cells were washed with PBS, trypsinized, and pelleted by centrifugation. The cell pellet was resuspended in 200 μl PBS, and DNA was extracted and analyzed as above. For dose responses, values were plotted in GraphPad Prism 5 and analyzed with the log (inhibitor) vs. normalized response—variable slope equation.
HepAD38 cells were seeded in 96-well plates (3×10^4 cells/well) in tet media. […] After 2 days, the media was removed, and fresh media containing compounds was added. After 2 additional days, cells were washed with PBS and lysed with 10 mM Tris (pH 7.5), 1mM EDTA, 100mM NaCl, 1% NP-40 at 37° C. for 30 min. 60 μl of lysate was added to 60 μl of 1 M NaOH, 1.5 M NaCl and incubated at RT for 5 min to denature DNA. 120 μl of 1 M Tris (pH 7.4), 2 M NaCl was added. Samples were transferred to positively charged nylon membranes (Roche) using a vacuum dot blot manifold. The wells were washed with 200 μl of 20× SSC (3M NaCl, 300 mM sodium citrate), and the DNA was UV crosslinked to the membranes. […] Membranes were incubated with CDP-STAR® chemiluminescent substrate (Roche), imaged by chemiluminescence, and quantified by densitometry. Values were plotted in GraphPad Prism 5 and analyzed with the log (inhibitor) vs. normalized response—variable slope equation.
Usually EC50 stands for the midpoint of the concentration-response curve. Compound `CCOC(=O)c1sc2[nH]c(Cc3ccccc3)nc(=O)c2c1C` [ZW-772, Ethyl 2-benzyl-5-methyl-4-oxo-1,4-dihydrothieno[2,3-d]pyrimidine-6-carboxylate] yielded an EC50 above 10 µM.

Still in this data set, the particulars now being: Hepatitis B virus, Table 2, cell-based, read-out: EC50.
On to `COc1ccc(NC(=O)c2sc(N)c(C(N)=O)c2C)cc1` [ZW-769, 5-Amino-N2-(4-methoxyphenyl)-3-methylthiophene-2,4-dicarboxamide], for which the EC50 was around 10 µM. In the case of `Cc1c(C(=O)NCc2ccccc2)sc(N)c1C(N)=O` [ZW-770, 5-Amino-N2-benzyl-3-methylthiophene-2,4-dicarboxamide], the EC50 was around 10 µM. Same read-out and setting: the figure for `Cc1ccc(NC(=O)c2sc(N)c(C(N)=O)c2C)cc1` [ZW-771, 5-Amino-3-methyl-N2-(p-tolyl)thiophene-2,4-dicarboxamide] is above 10 µM; for `CCOC(=O)c1sc2[nH]c(Cc3cc(C)cc(C)c3)nc(=O)c2c1C` [ZW-773, Ethyl 2-(3,5-dimethylbenzyl)-5-methyl-4-oxo-1,4-dihydrothieno[2,3-d]pyrimidine-6-carboxylate] it is above 10 µM; for `CCOC(=O)c1sc2[nH]c(Cc3ccc(-c4ccccc4)cc3)nc(=O)c2c1C` [ZW-774, Ethyl 2-([1,1′-biphenyl]-4-ylmethyl)-5-methyl-4-oxo-1,4-dihydrothieno[2,3-d]pyrimidine-6-carboxylate] it is above 10 µM. The same measure, in the same setting: then `CCOC(=O)c1sc2[nH]c(-c3ccc(C)c(F)c3)nc(=O)c2c1C` [ZW-775, Ethyl 2-(3-fluoro-4-methylphenyl)-5-methyl-4-oxo-1,4-dihydrothieno[2,3-d]pyrimidine-6-carboxylate], with above 10 µM; and `CCOC(=O)c1sc2[nH]c(Cc3ccc(F)cc3)nc(=O)c2c1C` [ZW-776, Ethyl 2-(4-fluorobenzyl)-5-methyl-4-oxo-1,4-dihydrothieno[2,3-d]pyrimidine-6-carboxylate], with above 10 µM. Still for that read-out and setting: then `CCOC(=O)c1sc2[nH]c(C3CCCCC3)nc(=O)c2c1C` [ZW-777, Ethyl 2-cyclohexyl-5-methyl-4-oxo-1,4-dihydrothieno[2,3-d]pyrimidine-6-carboxylate], with above 10 µM; and `Cc1c(C(=O)Nc2ccccc2)sc(N)c1C(=O)NCc1ccc(C(F)(F)F)cc1` [ZW-790, 5-Amino-3-methyl-N2-phenyl-N4-(4-(trifluoromethyl)benzyl)thiophene-2,4-dicarboxamide], with above 10 µM; and `COc1ccc(CNC(=O)c2c(N)sc(C(=O)Nc3ccccc3)c2C)cc1` [ZW-791, 5-Amino-N4-(4-methoxybenzyl)-3-methyl-N2-phenylthiophene-2,4-dicarboxamide], with above 10 µM. As to `Cc1c(C(=O)Nc2ccccc2)sc(N)c1C(=O)NC1CC1` [ZW-792, 5-Amino-N4-cyclopropyl-3-methyl-N2-phenylthiophene-2,4-dicarboxamide], the concentration giving a half-maximal response (EC50) was above 10 µM. For the compound `Cc1c(C(=O)Nc2ccc(F)c(F)c2)sc(N)c1C(=O)Nc1ccc(Cl)cc1` [ZW-893, 5-Amino-N4-(4-chlorophenyl)-N2-(3,4-difluorophenyl)-3-methylthiophene-2,4-dicarboxamide], the EC50 was above 10 µM.

Consider `Cc1c(C(=O)Nc2ccc(F)c(F)c2)sc(N)c1C(=O)NC1CCCC1` [ZW-894, 5-Amino-N4-cyclopentyl-N2-(3,4-difluorophenyl)-3-methylthiophene-2,4-dicarboxamide], for which the EC50 is above 10 µM. With `Cc1c(C(=O)Nc2ccccc2)sc(N)c1C(=O)NC1CCCC1` [ZW-895, 5-Amino-N4-cyclopentyl-3-methyl-N2-phenylthiophene-2,4-dicarboxamide], the EC50 was above 10 µM. On the same count and under the same terms, then `Cc1c(C(=O)Nc2ccc(F)c(F)c2)sc(N)c1C#N` [ZW-1043, 5-Amino-4-cyano-N-(3,4-difluorophenyl)-3-methylthiophene-2-carboxamide], with around 10 µM.

System in a further data set: not listed separately
As to the kind of experiment: Cytotoxicity, Cell Proliferation Kit II (XTT) (Table 2). The following applies: human. It is filed as cell-based. (In general: Formazan colour is commonly taken as a measure of viable cells.)
Experimental: HepG2 cells were treated with compounds as in the antiviral screening above. At the end of treatment duration, cell viability was assessed with the Cell Proliferation Kit II (XTT) (Roche, Basel, Switzerland) according to the manufacturer's instructions. Values were plotted in GraphPad Prism 5 and analyzed with the log (inhibitor) vs. normalized response—variable slope equation.
In general, CC50 refers to the concentration giving 50% cytotoxicity. In turn, `Cc1c(C(=O)Nc2ccc(F)c(F)c2)sc(N)c1C(=O)Nc1ccccc1` [ZW-892, 5-Amino-N2-(3,4-difluorophenyl)-3-methyl-N4-phenylthiophene-2,4-dicarboxamide] yielded a CC50 of 26.2 ± 2.7 µM. Still for that read-out and setting: the figure for `Cc1c(C(=O)Nc2ccccc2)sc(N)c1C(=O)Nc1ccc(F)c(F)c1` [ZW-933, 5-Amino-N4-(3,4-difluorophenyl)-3-methyl-N2-phenylthiophene-2,4-dicarboxamide] is 40.5 ± 5.1 µM; for `Cc1cc(NC(=O)c2c(N)sc(C(=O)Nc3ccccc3)c2C)ccc1F` [ZW-934, 5-Amino-N4-(4-fluoro-3-methylphenyl)-3-methyl-N2-phenylthiophene-2,4-dicarboxamide] it is 39.6 ± 2.6 µM; for `Cc1c(C(=O)Nc2cc(F)c(F)c(Cl)c2)sc(N)c1C(N)=O` [ZW-1034, 5-Amino-N2-(3-chloro-4,5-difluorophenyl)-3-methylthiophene-2,4-dicarboxamide] it is 71.8 ± 4.1 µM. In the case of `Cc1c(C(=O)Nc2ccccc2)sc(NC(=O)c2cc(Cl)cc(Cl)c2)c1C(N)=O` [ZW-1040, 5-(3,5-Dichlorobenzamido)-3-methyl-N2-phenylthiophene-2,4-dicarboxamide], the CC50 is 49.5 ± 0.1 µM.

Take `Cc1cc(NC(=O)c2sc(N)c(C#N)c2C)ccc1F` [ZW-1044, 5-Amino-4-cyano-N-(4-fluoro-3-methylphenyl)-3-methylthiophene-2-carboxamide]: the CC50 is 96.1 ± 10.1 µM.

`Cc1c(C(=O)Nc2ccc(Cl)c(C(F)(F)F)c2)sc(N)c1C(N)=O` [ZW-1067, 5-Amino-N2-(4-chloro-3-(trifluoromethyl)phenyl)-3-methylthiophene-2,4-dicarboxamide] returned a CC50 of 72.1 ± 6.4 µM. The compound `Cc1cc(NC(=O)c2sc(N)c(C(N)=O)c2C)ccc1Br` [ZW-1068, 5-Amino-N2-(4-bromo-3-methylphenyl)-3-methylthiophene-2,4-dicarboxamide] came in with a CC50 of 107 ± 7.2 µM.

Still in this data set, the particulars now being: human, HepG2 cells.
As to `Cc1c(C(=O)Nc2ccccc2)sc(N)c1C(=O)Nc1ccccc1` [ZW-794, 5-Amino-3-methyl-N2,N4-diphenylthiophene-2,4-dicarboxamide], the CC50 was above 100 µM. `Cc1c(C(=O)Nc2ccc(F)c(F)c2)sc(N)c1C(N)=O` [ZW-896, 5-Amino-N2-(3,4-difluorophenyl)-3-methylthiophene-2,4-dicarboxamide] had a CC50 above 100 µM. Still for that read-out and setting: then `Cc1c(C(=O)Nc2ccc(F)c(F)c2)sc(N)c1C(=O)Nc1ccc(F)c(F)c1` [ZW-932, 5-Amino-N2,N4-bis(3,4-difluorophenyl)-3-methylthiophene-2,4-dicarboxamide], with 17.4 ± 1.3 µM. Same read-out and setting: then `Cc1c(C(=O)Nc2ccc(F)cc2)sc(N)c1C(N)=O` [ZW-1037, 5-Amino-N2-(4-fluorophenyl)-3-methylthiophene-2,4-dicarboxamide], with above 100 µM; and `Cc1c(C(=O)Nc2ccc(F)c(C#N)c2)sc(N)c1C(N)=O` [ZW-1039, 5-Amino-N2-(3-cyano-4-fluorophenyl)-3-methylthiophene-2,4-dicarboxamide], with above 100 µM. For the compound `Cc1c(C(=O)Nc2ccc(F)c(F)c2)sc(N)c1C#N` [ZW-1043, 5-Amino-4-cyano-N-(3,4-difluorophenyl)-3-methylthiophene-2-carboxamide], the half-maximal cytotoxic concentration (CC50) was above 100 µM. Compound `CCOC(=O)c1c(N)sc(C(=O)Nc2ccc(F)c(C)c2)c1C` [ZW-1046, Ethyl 2-amino-5-((4-fluoro-3-methylphenyl)carbamoyl)-4-methylthiophene-3-carboxylate] returned a cytotoxic concentration (CC50) above 100 µM.

For the compound `Cc1c(C(=O)Nc2ccccc2)sc(NC(=O)c2cn[nH]c2)c1C(N)=O` [ZW-1052, 3-Methyl-N2-phenyl-5-(1H-pyrazole-4-carboxamido)thiophene-2,4-dicarboxamide], the CC50 is above 100 µM.

With `Cc1c(C(=O)Nc2ccccc2)sc(NC(=O)c2nccs2)c1C(N)=O` [ZW-1053, 3-Methyl-N2-phenyl-5-(thiazole-2-carboxamido)thiophene-2,4-dicarboxamide], the cytotoxic concentration (CC50) is above 100 µM. Same read-out and setting: the figure for `Cc1c(C(=O)Nc2ccccc2)sc(NC(=O)c2csc([N+](=O)[O-])c2)c1C(N)=O` [ZW-1054, 3-Methyl-5-(5-nitrothiophene-3-carboxamido)-N2-phenylthiophene-2,4-dicarboxamide] is above 100 µM; for `Cc1c(C(=O)Nc2ccccc2)sc(NC(=O)c2ccsc2)c1C(N)=O` [ZW-1055, 3-Methyl-N2-phenyl-5-(thiophene-3-carboxamido)thiophene-2,4-dicarboxamide] it is above 100 µM. As for `Cc1ccc(C(=O)Nc2sc(C(=O)Nc3ccccc3)c(C)c2C(N)=O)s1` [ZW-1056, 3-Methyl-5-(5-methylthiophene-2-carboxamido)-N2-phenylthiophene-2,4-dicarboxamide], the CC50 was above 100 µM. For `Cc1c(C(=O)Nc2ccc(F)c(C(F)(F)F)c2)sc(N)c1C(N)=O` [ZW-1057, 5-Amino-N2-(4-fluoro-3-(trifluoromethyl)phenyl)-3-methylthiophene-2,4-dicarboxamide], the CC50 is above 100 µM. The same measure, in the same setting: then `Cc1c(C(=O)Nc2ccc(F)c(C(F)F)c2)sc(N)c1C(N)=O` [ZW-1066, 5-Amino-N2-(3-(difluoromethyl)-4-fluorophenyl)-3-methylthiophene-2,4-dicarboxamide], with above 100 µM; and `Cc1c(C(=O)Nc2ccccc2)sc(NC(=O)c2ccc(S(C)(=O)=O)cc2)c1C(N)=O` [ZW-1073, 3-Methyl-5-(4-(methylsulfonyl)benzamido)-N2-phenylthiophene-2,4-dicarboxamide], with above 100 µM.
